Assay results: US20080026409A1, “SALT-SENSITIVE HYPERTENSION” (THE BOARD OF TRUSTEES OF THE UNIVERSITY OF ILLINOIS, priority 2006, published 2008)
Entries after “also recorded” stand apart in the source; their conditions may differ.

Columns and labels:
[1] = tested on: basolateral Na/K ATPase in LLCPK1 cells; experiment: Basolateral Na/K ATPase expression by surface biotinylation and Western blot; assay type: cell-based; conditions: for expression of basolateral Na/K ATPase: LLCPK1 cells, Ang IV 10^−9 M×20 hours, siRNA transfection
Protocol: Representative autoradiograph of Na-K ATPase as detected by Western blot represented above bar-graph. Upper panel: representative autoradiograph of Na-K ATPase as detected by Western blot. Overexpression of APN( APN Over Exp) n=3 (except Ang IV, n=6) * P<0.05 compared to control paired t-test) Complementary measurements of Na/K ATPase expression by confocal microscopy-FIG. 5).
(§1) Na/K ATPase expression and activity are measured by basolateral surface biotinylation and oubain-inhibitable ATPase activity, respectively, in cells cultured in Transwell plates.
In complementary experiments, basolateral Na/K ATPase expression in cultured cells is measured both by biotinylation and confocal microscopy. Biotinylation technique to assess the surface Na/K ATPase protein has already been established in our laboratory. Biotinylation is performed as using NHS-S-S-biotin (Pierce). Labeling for 20 min at the basolateral domain in cells grown in transwells at 4° C. to stop endocytosis and internalization of antigen. Biotinylated antigens are immunoprecipitated with streptavidin agarose and released by incubation in 10 mM dithiothreitol, reconstituted in Laemmli buffer, subjected to SDS-PAGE and then probed with Anti alphal Na/K ATPase mAb (Upstate/ Millipore, Billerica, Mass.). For analysis, surface Na/K ATPase is compared to total protein as determined by immunoblotting in solubilized cell extract and with the amount of Na/K ATPase not removed by avidin precipitation method (intracellular pool).

[2] = tested on: Na/K ATPase in LLCPK1 cells; experiment: Na/K ATPase distribution by confocal immunofluorescence; assay type: cell-based; conditions: for APN induced endocytosis of Na/K ATPase: LLCPK1 cells with APN overexpression plus siRNA; for Na/K ATPase distribution (endocytosis, membrane abundance): LLCPK1 cells, Ang IV 10 nM×12 hours, oubain 50 nM×12 hours (control)
Excerpt: FIGS. 6A-6G are scans of photographs showing Na/K ATPase distribution in LLCPK1 cells by immuno fluorescence (complementary to FIG. 5): Confocal images from z-stacked permeabilized LLCPK1 cells probed for Na/K ATPase using monoclonal Ab against the alpha subunit of Na/K ATPase (1:100). FIG. 6A: Control. […] All images were generated with a Zeiss LSM 410 laser scanning confocal microscope at 100×. All settings were the same for all images obtained. Images are representative of experiments repeated twice. Arrows: endocytosis of Na/K ATPase.
Confocal microscopy: Confocal fluorescence microscopy is performed using a Zeiss LSM 510 confocal microscope and Anti alphal Na/K ATPase mAb (Upstate/ Millipore, Billerica, Mass.) to further confirm the internalization of surface Na/K ATPase.

LLC-PK cells = experiment: Quantitative immunohistochemistry for APN and Ang IV after siRNA; assay type: cell-based; conditions: siRNA 2 μg per well, 48 hours, Q-IHC, P<0.05 vs control
Protocol: The top panel is a scan of photographs showing quantitative immunohistochemistry (QIH-C) for APN and Ang IV. Cells were grown in 4 well chamber plates. For siRNA, each well was incubated (37° C. for 5 hours) with 1 ml media containing 4 μl of Enhancer R, 4 μl of RNAi (2 μg), 8 μl of Transmessenger Reagent and […] of optimem followed by 0.5 ml of optimem+20% FBS for 48 hours. The cells were fixed with 3.7% formaldehyde and stained using DakoCytomation staining kit. The amount of DAB staining was measured using Q-IHC. N=10 fields analyzed/transfection×2 transfections P<0.05 vs control. Upper panel: representative fields. Positive staining-arrows.
APN abundance regulates Ang IV: To initially address the hypothesis that the mechanism for APN-mediated regulation of Na/K ATPase is via Ang IV signaling, the effect of suppression of endogenous APN expression with siRNA on Ang IV abundance was measured in LLC-PK cells (FIG. 3A-3B). siRNA to APN decreased both APN and Ang IV expression, indicating the Ang IV level was regulated by APN.
For quantitative immunohistochemistry, a standard three-stage indirect immunoperoxidase technique is used on formalin fixed kidney sections. Images are acquired using a 4.9 million pixel digital scanning 24-bit RGB camera, saved in TIFF format, and used for subsequent analysis. […]

HK-2 cells = conditions: cited from earlier work
rat = conditions: infusion into the renal artery, cited from earlier work
rat proximal tubules = conditions: fresh suspensions of control or nystatin-stimulated rat proximal tubules; cited from earlier work
[3] = tested on: primary cultures of rat renal epithelial cells; conditions: cited from earlier work
[4] = tested on: Dahl SS/Jr rats on 8% NaCl; experiment: Radiotelemetric blood pressure monitoring during Ang IV infusion; assay type: in vivo, rat; conditions: 10 day Ang IV infusion 7 pmol/minute, n=4, P<0.05
Protocol: Radiotelemetric blood pressure monitoring with 10 day Ang IV (7 pmol/minute) infusion (===). Systolic BP (peak) 157-188 mmHg. BP for each rat normalized to day 9, each BP averaged during 12 hour dark cycle (rats maintained 12 hours light/dark cycle). Day 0—surgical implantation of pressure transducer and infusion pump. n =4,- - - less than days 6-9 (initial infusion of Ang IV) and 16-24 (P<0.05).
Continuous arterial blood pressure monitoring is by radiotelemetry in freely moving instrumented rats. An implantable osmotic pump is used for infusion experiments.
First, for tail-cuff measurements, the rats must be restrained which falsely elevates the blood pressure due to adrenergic storm. With radiotelemetry, the rats are unrestrained and blood pressures are measured continuously in freely moving rats in large cages. […] Third, with tail cuff, blood pressures are measured once or at most twice a day, whereas, with radiotelemetry, blood pressures are measured continuously, allowing assessment of diurnal patterns and the time-integral of overall blood pressure burden. […]
Survival Surgery and Radiotelemetry Measurement of Central Aortic Pressure. […] Once the transmitter is activated by a special magnet, measurements of pulsatile central aortic blood pressure is recorded continuously by placing an individual receiver under each rat's cage. […]

[5] = tested on: Na/K ATPase in LLCPK1 cells; experiment: Na/K ATPase activity (oubain-inhibitable ATPase) in cultured cells; assay type: cell-based; conditions: FIG. 7, n=1 (triplicate)
Protocol: FIG. 7 is a graph showing Na/K ATPase activity parallels changes in basolateral Na/K ATPase expression in LLCPK1 cells treated with siRNA to APN and AT4; Ang IV and oubain (control). n=1 (triplicate). siRNA to APN (siRNA-APN); siRNA to AT4 (siRNA-AT4); APN over-expression (APN o/e).
as §1
Measurement of Na/KATPase expression and activity: Na/K ATPase activity in membranes isolated from proximal tubule fractions and membranes from cultured/transfected cell lines is measured as the rate of inorganic phosphate, using coloring reagent (10% ammonium molybdate in 10 N sulfuric acid +ferrous sulfate) released in the presence or absence of oubain.

Dahl SR rats = experiment: Infusion of Anpep inhibitor, salt-sensitivity by radiotelemetric blood pressure; assay type: in vivo, rat; conditions: preliminary experiments
Protocol: For these experiments, continuous radiotelemetric blood pressure monitoring is performed in rats instrumented with transducers and osmotic mini-pumps.

## 5′-AACCTGAGTCAGGACGTAAT-3′; SEQ ID NO: 4 [siRNA to AT4 receptor]
[1]; LLCPK1 cells treated with siRNA and Ang IV
  regulation (reduction) of Na/K ATPase expression by Ang IV: partially abolishes; also recorded: abrogated
[1]
  expression of basolateral Na/K ATPase: increase
[2]
  APN induced endocytosis of Na/K ATPase: partially blocks
[2]; listed as siRNA to the AT4 receptor
  APN induced endocytosis of Na/K ATPase: abrogrates

## 5′-UCGGGCACAGAUCAUUAUUd(TT)-3′; SEQ ID NO: 3 [siRNA to APN]
[1]
  expression of basolateral Na/K ATPase: increased
LLC-PK cells
  APN expression: reduces; also recorded: decreased
  Ang IV expression: reduces; also recorded: decreased

## CC[C@H](C)[C@H](NC(=O)[C@H](Cc1ccc(O)cc1)NC(=O)[C@@H](N)C(C)C)C(=O)N[C@@H](Cc1cnc[nH]1)C(=O)N1CCC[C@H]1C(=O)N[C@@H](Cc1ccccc1)C(=O)O [Ang IV, V-Y-I-H-P-F (SEQ ID NO: 2)]
HK-2 cells
  Na uptake (reflecting decreased flux): increases Na uptake
rat; rat
  cortical blood flow: increases cortical blood flow
rat
  Na excretion: increases urinary Na excretion; also recorded: promotes Na excretion
  blood pressure: lowers blood pressure
Rat proximal tubules
  transcellular Na+ transport (proximal tubule O2 consumption rates): decreases
[1]
  expression of basolateral Na/K ATPase: tend to reduce; also recorded: reduced
[3]
  transcellular Na transport: dose-dependent decrease
[4]
  blood pressure (BP): reduces blood pressure; also recorded: lowers arterial blood pressure
[5]
  activity of basolateral Na/K ATPase: reduce
[2]
  Na/K ATPase distribution (endocytosis, membrane abundance): endocytosis and reduced membrane abundance of Na/K ATPase

## CC(C)C[C@H](NC(=O)C(O)[C@H](N)Cc1ccccc1)C(=O)O (stereo partly drawn) [bestatin, (2S,3R)-3-amino-2-hydroxy-4-phenylbutanoyl-L-leucine]
Dahl SR rats
  salt-sensitivity: induced sensitivity

## C[C@@H]1O[C@@H](O[C@H]2C[C@@H](O)[C@]3(CO)[C@H]4[C@H](O)C[C@]5(C)[C@@H](C6=CC(=O)OC6)CC[C@]5(O)[C@@H]4CC[C@]3(O)C2)[C@H](O)[C@H](O)[C@H]1O [oubain]
[2]
  Na/K ATPase distribution (endocytosis, membrane abundance): endocytosis
